# Data from patent US12295936B2, “Immunomodulating urea azalides” (Zoetis Services LLC, priority 2020, dated 2025).
# Entries after “also recorded” stand apart in the source; their conditions may differ. Like-named read-outs stand apart in the source and are kept apart here.
# Assays:
# IL-6 = assay: LPS-stimulated whole bovine blood assay, MSD cytokine detection; type: cell-based; settings: for IC50: Bos taurus, LPS-stimulated bovine whole blood, read-out: IL-6 (IC50 μM)
# Excerpt: In order to correlate RNA sequencing data to cytokine changes the whole blood assay was utilized. […] The enhancement result represents an overall stimulation of cytokine levels due to cellular stress or potential toxicity with increasing concentrations of the compound, representing a typical bell shape response curve for immunomodulatory activity.
# [1] = pH dependent aqueous solubility; type: physicochemical
# Method: In an aqueous solution, Example H-11 exists as an equilibrated mixture of two lactone isomers as shown above. The ratio is approximately 9:1 lactone A:B. The rate of equilibration depends on pH and temperature, with neutral pH giving faster equilibration, pH˜5-6 giving much slower equilibration, and higher temperatures resulting in faster equilibration. Equilibration occurs in under 1-hour at pH>6 and temperatures >60° C. H-11 isomerization is a 6 exo-Trig cyclization and is a favored reaction by Baldwin's Rules. The dominant isomer, lactone-A, is a 15-membered macrocyclic lactone, while the minor isomer, lactone-B, is a 13-membered macrocyclic lactone. […] Due to the pH dependent solubility of H-11, and other compounds of the invention, dissolution of an organic acid (e.g., citric acid) into water prior to adding the active agent (e.g., H-11) may be necessary to ensure complete dissolution, particularly for higher concentration solutions, thereby providing a solution with enough buffering capacity for dissolution.
# [2] = system: E. coli and Salmonella isolates; assay: Ames mutagenicity test; type: cell-based; settings: 1-5000 μg/plate, plate incorporation method
# Method: In an Ames mutagenicity test, Example H-91 (1-5000 μg/plate; using the plate incorporation method and a standard panel of bacterial (E. coli and Salmonella isolates) was negative (non-mutagenic).
# TNF-α = assay: LPS-stimulated whole bovine blood assay, MSD cytokine detection; type: cell-based; settings: for IC50: Bos taurus
# [3] = system: bovine respiratory disease (BRD); assay: Natural bovine respiratory disease (field) studies; type: in vivo, cattle
# [4] = Lactone A / lactone B equilibration in aqueous solution; type: physicochemical; settings: pH>6 and temperatures >60° C.
# Method: The H-11 lactones were separated by HPLC using an Agilent 1100 quaternary pump and diode array detector (250 nm) with an X-select CSH C18 column (150×4.6 mm, 2.5 μm) at 50° C. using a gradient mobile phase (mp) comprising 0.03% H2SO4 in water (mpA) and acetonitrile (mpB) over 16 minutes. Lactone A eluted at 5.8 minutes (area % 92.4) and lactone B eluted at 5.2 minutes (area % 7.6).
# In an aqueous solution, Example H-11 exists as an equilibrated mixture of two lactone isomers as shown above. The ratio is approximately 9:1 lactone A:B. The rate of equilibration depends on pH and temperature, with neutral pH giving faster equilibration, pH˜5-6 giving much slower equilibration, and higher temperatures resulting in faster equilibration. Equilibration occurs in under 1-hour at pH>6 and temperatures >60° C. H-11 isomerization is a 6 exo-Trig cyclization and is a favored reaction by Baldwin's Rules. The dominant isomer, lactone-A, is a 15-membered macrocyclic lactone, while the minor isomer, lactone-B, is a 13-membered macrocyclic lactone. […]
# IL-36RA = IL-36RA change during natural infection bovine studies; type: in vivo, cattle; settings: H-91 0.5 mg/kg, H-11 0.1 mg/kg; for IL-36RA concentration relative to the baseline concentration after the elevation: after roughly 8 hours; for increase in IL-36RA compared to baseline: within 1 hour, FIG. 5
# Method: Intensive sample collection was conducted over a 96-hour period in a subset of cattle treated with Example H-91 (0.5 mg/kg) or H-11 (0.1 mg/kg) in the natural bovine infection studies. […] The compounds of the invention have shown an up-regulation of IL-36RA, which then binds to IL-36R limiting the pro-inflammatory response of IL-36. In addition, the IL-8 levels from one of the natural infection studies with Example H-91, increased 270% over the course of the study for control animals. In contrast, the IL-8 levels in animals dosed with Example H-91 decreased by about 15%.
# [5] = system: M. haemolytica (OSU-012103-BHI); assay: In vivo bovine M. haemolytica intratracheal lung infection challenge model; settings: for Significance to T01, mortality: p≤0.2; for Mortality/Euthanization No, % / Mortality/Euthanization No, Number: surviving animals
# in vivo = settings: Holstein, bovine, plasma, subcutaneous, 2.5 mg/kg
# Method: The primary clinical endpoint for efficacy was treatment failure/success over a 14-day observation period. Clinically normal beef calves (150-200 kg) at moderate risk for BRD were dosed on arrival to the feedlot. Animals (N=114/group) received saline (T01), 5 mg/kg M9 (T02), 10 mg/kg M9 (T03) or Zactran (T04).
# [6] = 4 independent studies with multiple blood donors, FIG. 4
# [7] = LPS-stimulated bovine whole blood, read-out: TNF-α (IC50 μM)
# [8] = LPS-stimulated whole bovine blood, read-out: TNF-α IC50
# [9] = Table 9 study, T03: 0.5 mg/kg subcutaneous
# [10] = Table 9 study, T04: 2.5 mg/kg subcutaneous
# [11] = Table 7 study, T02: 0.5 mg/kg subcutaneous
# [12] = Table 7 study, T03: 2.5 mg/kg subcutaneous
smiles,measurement,setting,value
"CCCNC[C@]1(O)[C@H](C)O[C@@H](O[C@H]2[C@H](C)[C@@H](O[C@@H]3O[C@H](C)C[C@H](N(C)C(=O)N(C)c4ccccc4)[C@H]3O)[C@](C)(O)C[C@@H](C)CN[C@H](C)[C@@H](O)[C@](C)(O)[C@@H](CC)OC(=O)[C@@H]2C)C[C@@]1(C)OC [Example H-11, 1-((2S,3R,4S,6R)-2-(((2R,3S,4R,5R,8R,10R,11R,12S,13S,14R)-2-ethyl-3,4,10-trihydroxy-13-(((2R,4R,5S,6S)-5-hydroxy-4-methoxy-4,6-dimethyl-5-((propylamino)methyl)tetrahydro-2H-pyran-2-yl)oxy)-3,5,8,10,12,14-hexamethyl-15-oxo-1-oxa-6-azacyclopentadecan-11-yl)oxy)-3-hydroxy-6-methyltetrahydro-2H-pyran-4-yl)-1,3-dimethyl-3-phenylurea]","expression of IL-6, LPS stimulated whole bovine blood",IL-6; [6],dose dependent reduction
same,IC50,IL-6,22 µM
same,aqueous solubility,[1]; acidic pH,very soluble
same,aqueous solubility,[1]; as the pH approaches neutral conditions,lower solubility
same,Ames mutagenicity test,[2],non-mutagenic
same,"expression of TNF-α, LPS stimulated whole bovine blood",TNF-α; [6],dose dependent reduction
same,IC50,TNF-α; [7],8 µM
same,IC50,TNF-α; [8],8 µM
same,Treatment success,"[3]; 0.03 mg/kg (T02) subcutaneous Day 0, natural field study to Day 7, saline 32.1%",58.3%
same,Treatment success,"[3]; 0.1 mg/kg (T03) subcutaneous Day 0, natural field study to Day 7, saline 32.1%",60.7%
same,Treatment success,"[3]; 0.3 mg/kg (T04) subcutaneous Day 0, natural field study to Day 7, saline 32.1%",51.2%
same,Treatment success,"[3]; 1 mg/kg (T05) subcutaneous Day 0, natural field study to Day 7, saline 32.1%",40.5%
same,time to equilibration of the lactone isomers,[4],under 1 hour
same,IL-36RA concentration relative to the baseline concentration after the elevation,IL-36RA,−55%
same,increase in IL-36RA compared to baseline,IL-36RA,about 50%
same,"Significance at .20 level to T01, lung lesions","[5]; Table 8 study, T03: 0.5 mg/kg subcutaneous",No
same,"Significance at .20 level to T01, lung lesions","[5]; Table 8 study, T04: 2.5 mg/kg subcutaneous",Yes
same,"Mortality/Euthanization Yes, %",[5]; [9],16.7%
same,"Mortality/Euthanization Yes, Number",[5]; [9],4
same,"Significance to T01, mortality",[5]; [9],Yes
same,"Mortality/Euthanization No, %",[5]; [9],83.3%
same,"Mortality/Euthanization No, Number",[5]; [9],20
same,"Mortality/Euthanization Yes, %",[5]; [10],25.0%
same,"Mortality/Euthanization Yes, Number",[5]; [10],6
same,"Significance to T01, mortality",[5]; [10],No
same,"Mortality/Euthanization No, %",[5]; [10],75.0%
same,"Mortality/Euthanization No, Number",[5]; [10],18
same,number of blood neutrophils,"[5]; treatment 24 hours prior to challenge, FIG. 8",reduced
"CCCNC[C@]1(O)[C@H](C)O[C@@H](O[C@H]2[C@H](C)[C@@H](O[C@@H]3O[C@H](C)C[C@H](N(C)C(=O)Nc4ccccc4)[C@H]3O)[C@](C)(O)C[C@@H](C)CN[C@H](C)[C@@H](O)[C@](C)(O)[C@@H](CC)OC(=O)[C@@H]2C)C[C@@]1(C)OC [Example H-91, 1-((2S,3R,4S,6R)-2-(((2R,3S,4R,5R,8R,10R,11R,12S,13S,14R)-2-ethyl-3,4,10-trihydroxy-13-(((2R,4R,5S,6S)-5-hydroxy-4-methoxy-4,6-dimethyl-5-((propylamino)methyl)tetrahydro-2H-pyran-2-yl)oxy)-3,5,8,10,12,14-hexamethyl-15-oxo-1-oxa-6-azacyclopentadecan-11-yl)oxy)-3-hydroxy-6-methyltetrahydro-2H-pyran-4-yl)-1-methyl-3-phenylurea]",IC50,IL-6,181 µM
same,Ames mutagenicity test,[2],negative; also recorded: non-mutagenic
same,IC50,TNF-α; [7],85 µM
same,IC50,TNF-α; [8],90 µM
same,Treatment success,"[3]; 0.5 mg/kg (T02) subcutaneous Day 0, natural field study to Day 7, saline 43.0%",57.9%
same,Treatment success,"[3]; 2.5 mg/kg (T03) subcutaneous Day 0, natural field study to Day 7, saline 43.0%",43.9%
same,IL-36RA concentration relative to the baseline concentration after the elevation,IL-36RA,−55%
same,increase in IL-36RA compared to baseline,IL-36RA,about 275%
same,Cmax,in vivo,152 ng/mL
same,"Significance at .20 level to T01, lung lesions","[5]; Table 6 study, T02: 0.5 mg/kg subcutaneous",Yes
same,"Significance at .20 level to T01, lung lesions","[5]; Table 6 study, T03: 2.5 mg/kg subcutaneous",Yes
same,"Mortality/Euthanization Yes, %",[5]; [11],0%
same,"Mortality/Euthanization Yes, Number",[5]; [11],0
same,"Significance to T01, mortality",[5]; [11],Yes
same,"Mortality/Euthanization No, %",[5]; [11],100%
same,"Mortality/Euthanization No, Number",[5]; [11],23
same,"Mortality/Euthanization Yes, %",[5]; [12],8.3%
same,"Mortality/Euthanization Yes, Number",[5]; [12],2
same,"Significance to T01, mortality",[5]; [12],Yes
same,"Mortality/Euthanization No, %",[5]; [12],91.7%
same,"Mortality/Euthanization No, Number",[5]; [12],22
